Patent US11691992B2 (Anacor Pharmaceuticals, Inc., priority 2017, dated 2023)
pIC50: −log10 of the molar value.

Experiments:
[1] = test system: promastigote forms of L. major; assay: Leishmania major promastigote growth inhibition assay (Alamar Blue); assay type: cell-based; conditions: promastigotes, 44 hours + 4 hours Alamar Blue, read-out: IC50: I Org. promastigote Growth L. major, 2 d
How it was run: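 Early-log L. major promastigotes (5,000/well) in Schneider's medium with 20% FBS incubated with compound 44 h at 28° C; drug solutions in DMSO were 10,000 or 1,000 ng/ml before dispensing. Alamar Blue added 4 h, fluorescence at 560/590 nm gives percent growth inhibition; IC50 determined for compounds inhibiting ≥50%.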

[2] = test system: luciferase-expressing L. major parasites developing intracellularly inside RAW 264.7 macrophages; assay: Leishmania major intracellular amastigote assay in RAW 264.7 macrophages (luciferase); assay type: cell-based; conditions: RAW264.7, 96 hours, read-out: IC50: I Org. intracellular amastigote Growth L. major, 4 d
How it was run: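 RAW 264.7 macrophages infected overnight with luciferase-expressing L. major promastigotes, washed of extracellular parasites, then exposed to two-fold compound dilutions (final 0.5-10,000 ng/ml) for 96 h at 37° C, 5% CO2. Luciferin luminescence after 30 min; IC50 by sigmoidal variable-slope regression.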

| SMILES | pIC50 [1] | pIC50 [2] |
| --- | --- | --- |
| COc1ccc(-n2cc(C(=O)Nc3ccc4c(c3)B(O)OC43CCC3)nn2)cc1 [Example 25, N-(1-hydroxy-1H-spiro[benzo[c][1,2]oxaborole-3,1′-cyclobutan]-6-yl)-1-(4-methoxyphenyl)-1H-1,2,3-triazole-4-carboxamide] | 4.70 to 5.60 | 4.30 to 5.00 |
| O=C(Nc1ccc2c(c1)B(O)OC21CCC1)c1cn(-c2ccccn2)nn1 [Example 26, N-(1-hydroxy-1H-spiro[benzo[c][1,2]oxaborole-3,1′-cyclobutan]-6-yl)-1-(pyridin-2-yl)-1H-1,2,3-triazole-4-carboxamide] | 4.70 to 5.60 | 5.00 to 5.96 |
| O=C(Nc1ccc2c(c1)B(O)OC2)c1cn(-c2ccccn2)nn1 [Example 61, N-(1-hydroxy-1,3-dihydrobenzo[c][1,2]oxaborol-6-yl)-1-(pyridin-2-yl)-1H-1,2,3-triazole-4-carboxamide] | > 6.22 | 5.00 to 5.96 |
| Cc1c(C(=O)Nc2ccc3c(c2)B(O)OC3)nnn1-c1ccccn1 [Example 84, N-(1-hydroxy-1,3-dihydrobenzo[c][1,2]oxaborol-6-yl)-5-methyl-1-(pyridin-2-yl)-1H-1,2,3-triazole-4-carboxamide] | > 6.22 | 5.00 to 5.96 |
| COc1ccc(-n2nnc(C(=O)Nc3ccc4c(c3)B(O)OC4)c2C)cc1 [Example 91, N-(1-hydroxy-1,3-dihydrobenzo[c][1,2]oxaborol-6-yl)-1-(4-methoxyphenyl)-5-methyl-1H-1,2,3-triazole-4-carboxamide] | > 6.22 | 5.00 to 5.96 |
| Cc1c(C(=O)Nc2ccc3c(c2)B(O)OC3)nnn1-c1cccnc1 [Example 93, N-(1-hydroxy-1,3-dihydrobenzo[c][1,2]oxaborol-6-yl)-5-methyl-1-(pyridin-3-yl)-1H-1,2,3-triazole-4-carboxamide] | 4.70 to 5.60 | 4.30 to 5.00 |
